Results from patent publication US9790169B2, “IDO inhibitors” (BRISTOL-MYERS SQUIBB COMPANY, priority 2015, dated 2017).

Each compound was assayed against human IDO1 (Homo sapiens, UniProt P14902) (assay: Assessment of human IDO-1 inhibitory activity in HEK cells (human IDO1/HEK293 cells, kynurenine read-out with Ehrlich reagent, absorbance 490 nm)). Details: HEK Human IDO-1 cellular assay.
Assay type: cell-based
Design: expressed in transfected cells
How it was run: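 Kynurenine output from stably IDO1-transfected HEK293 cells (10,000/well, phenol red-free RPMI, 10% FBS) after 20 h compound exposure at 37 °C. The reaction was stopped with 0.2% TCA and heated 30 min at 50 °C, then the supernatant was mixed with Ehrlich reagent and read at 490 nm. IC50 was set against DMSO and a 500 nM reference standard as 0 and 100% inhibition.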

Sequence of human IDO1 (P14902 whole entry): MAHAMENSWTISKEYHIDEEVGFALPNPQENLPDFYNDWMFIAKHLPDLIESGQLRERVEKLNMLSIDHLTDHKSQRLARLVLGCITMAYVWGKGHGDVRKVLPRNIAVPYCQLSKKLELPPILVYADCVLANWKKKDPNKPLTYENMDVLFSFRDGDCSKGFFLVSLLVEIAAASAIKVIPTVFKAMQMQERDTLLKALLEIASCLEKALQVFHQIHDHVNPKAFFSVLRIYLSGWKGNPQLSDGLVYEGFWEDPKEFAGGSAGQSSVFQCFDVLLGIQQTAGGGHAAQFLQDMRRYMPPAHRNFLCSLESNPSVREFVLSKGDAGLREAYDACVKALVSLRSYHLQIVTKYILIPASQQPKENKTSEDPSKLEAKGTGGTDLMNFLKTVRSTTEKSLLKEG

Structure (SMILES)	IC50
CC[C@@H](CC(=O)O)c1ccc(N(CC)C2CCOCC2)c(Nc2ccn3nccc3n2)c1 (single isomer, unassigned) [Example 468]	> 50 nM
CC[C@@H](CC(=O)O)c1ccc(N(CC)C2CCOCC2)c(Nc2nc3cc(C)nn3cc2F)c1 (single isomer, unassigned) [Example 469]	> 50 nM
CC[C@@H](CC(=O)O)c1ccc(N(CC)C2CCOCC2)c(Nc2ccc3nncn3c2)c1 (single isomer, unassigned) [Example 471]	> 50 nM
CC[C@@H](CC(=O)O)c1ccc(N(CC)C2CCOCC2)c(Nc2cnc3cnccn23)c1 (single isomer, unassigned) [Example 472]	> 50 nM
CC[C@@H](CC(=O)O)c1ccc(N(CC)C2CCOCC2)c(Nc2ccn3nc(C)c(F)c3n2)c1 (single isomer, unassigned) [Example 473]	> 50 nM
CC[C@@H](CC(=O)O)c1ccc(N(CC)C2CCOCC2)c(Nc2cn3ccnc3cn2)c1 (single isomer, unassigned) [Example 483]	> 50 nM
CC[C@@H](CC(=O)O)c1ccc(N(CC)C2CCOCC2)c(Nc2ccc3c(c2)OCCO3)c1 (single isomer, unassigned) [Example 486]	> 50 nM
CCC(CC(=O)O)c1ccc(N(CC)C2CCOCC2)c(NC(=O)Nc2cnc(C)nc2)c1 (single isomer, unassigned) [Example 488 Enantiomer 1, 3-(4-(Ethyl(tetrahydro-2H-pyran-4-yl)amino)-3-(3-(2-methylpyrimidin-5-yl)ureido)phenyl)pentanoic acid]	> 50 nM
CC[C@@H](CC(=O)O)c1ccc(N(CC)C2CCOCC2)c(NC(=O)Nc2ccc(OC)cc2)c1 (single isomer, unassigned) [Example 492]	< 50 nM
CC[C@@H](CC(=O)O)c1ccc(N(CC)C2CCOCC2)c(NC(=O)Nc2ccc(OC)cc2F)c1 (single isomer, unassigned) [Example 493]	> 50 nM
CC[C@@H](CC(=O)O)c1ccc(N(CC)C2CCOCC2)c(NC(=O)Nc2ccc(Cl)cc2)c1 (single isomer, unassigned) [Example 494]	> 50 nM
CC[C@@H](CC(=O)O)c1ccc(N(CC)C2CCOCC2)c(NC(=O)Nc2ccc(Cl)nc2)c1 (single isomer, unassigned) [Example 495]	> 50 nM
CC[C@@H](CC(=O)O)c1ccc(N(CC)C2CCOCC2)c(NC(=O)Nc2ccc3c(c2)CS(=O)(=O)C3)c1 (single isomer, unassigned) [Example 496]	> 50 nM
CC[C@@H](CC(=O)O)c1ccc(N(CC)C2CCOCC2)c(NC(=O)Nc2cc(C)on2)c1 (single isomer, unassigned) [Example 497]	> 50 nM
CCc1cnc(Nc2cc([C@H](CC)CC(=O)O)ccc2N(CC)C2CCOCC2)nc1 (single isomer, unassigned) [Example 500]	> 50 nM
CC[C@H](CC(=O)O)c1ccc(N(CC)C2CCOCC2)c(Nc2ccn3nccc3n2)c1 (single isomer, unassigned) [Example 511]	> 50 nM
CC[C@H](CC(=O)O)c1ccc(N(CC)C2CCOCC2)c(Nc2ccc3nncn3c2)c1 (single isomer, unassigned) [Example 512]	> 50 nM
CC[C@H](CC(=O)O)c1ccc(N(CC)C2CCOCC2)c(Nc2ccn3nc(C)c(F)c3c2)c1 (single isomer, unassigned) [Example 513]	< 50 nM
CC[C@H](CC(=O)O)c1ccc(N(CC)C2CCOCC2)c(Nc2ccc(Cl)c(OC)c2)c1 (single isomer, unassigned) [Example 521]	< 50 nM
CC[C@H](CC(=O)O)c1ccc(N(CC)C2CCOCC2)c(Nc2cn3ccnc3cn2)c1 (single isomer, unassigned) [Example 523]	> 50 nM
CC[C@H](CC(=O)O)c1ccc(N(CC)C2CCOCC2)c(Nc2ccc3nc(C)sc3c2)c1 (single isomer, unassigned) [Example 524]	< 50 nM
CC[C@H](CC(=O)O)c1ccc(N(CC)C2CCOCC2)c(NC(=O)Nc2ccc(F)cc2)c1 (single isomer, unassigned) [Example 527]	< 50 nM
CCOc1ccc(NC(=O)Nc2cc([C@H](CC)CC(=O)O)ccc2N(CC)C2CCOCC2)cc1 (single isomer, unassigned) [Example 528]	< 50 nM
CC[C@H](CC(=O)O)c1ccc(N(CC)C2CCOCC2)c(NC(=O)Nc2ccc(OC)cc2)c1 (single isomer, unassigned) [Example 529]	< 50 nM

Other lines, results leading:

IC50	Structure (SMILES)
< 50 nM	CCC(CC(=O)O)c1ccc(N2C[C@@H]3C[C@H]2CN3C(=O)OC(C)(C)C)c(Nc2ccc(C)cc2)c1 (single isomer, unassigned) [Example 447]
< 50 nM	CCOc1ncc(Nc2cc([C@@H](CC)CC(=O)O)ccc2N(CC)C2CCOCC2)cn1 (single isomer, unassigned) [Example 455]
< 5 nM	CC[C@@H](CC(=O)O)c1ccc(N(CC)C2CCOCC2)c(Nc2ccc(Cl)cc2)c1 (single isomer, unassigned) [Example 456]
< 50 nM	CCc1cnc(Nc2cc([C@@H](CC)CC(=O)O)ccc2N(CC)C2CCOCC2)nc1 (single isomer, unassigned) [Example 457]
< 5 nM	CC[C@@H](CC(=O)O)c1ccc(N(CC)C2CCOCC2)c(Nc2ccc(C#N)cc2)c1 (single isomer, unassigned) [Example 458]
< 50 nM	CC[C@@H](CC(=O)O)c1ccc(N(CC)C2CCOCC2)c(Nc2ccn3nc(C)c(F)c3c2)c1 (single isomer, unassigned) [Example 470]
< 5 nM	CCOc1ccc(Nc2cc([C@@H](CC)CC(=O)O)ccc2N(CC)C2CCOCC2)cc1 (single isomer, unassigned) [Example 474]
< 5 nM	CC[C@@H](CC(=O)O)c1ccc(N(CC)C2CCOCC2)c(Nc2ccc(OCC(F)(F)F)cc2)c1 (single isomer, unassigned) [Example 475]
< 5 nM	CC[C@@H](CC(=O)O)c1ccc(N(CC)C2CCOCC2)c(Nc2ccc(OCC3CC3)cc2)c1 (single isomer, unassigned) [Example 476]
< 5 nM	CCc1ccc(Nc2cc([C@@H](CC)CC(=O)O)ccc2N(CC)C2CCOCC2)cc1 (single isomer, unassigned) [Example 477]
< 5 nM	CC[C@@H](CC(=O)O)c1ccc(N(CC)C2CCOCC2)c(Nc2ccc(OC)nc2)c1 (single isomer, unassigned) [Example 478]
< 5 nM	CC[C@@H](CC(=O)O)c1ccc(N(CC)C2CCOCC2)c(Nc2cnc(OC)nc2)c1 (single isomer, unassigned) [Example 479]
< 5 nM	CC[C@@H](CC(=O)O)c1ccc(N(CC)C2CCOCC2)c(Nc2cnc(OCC3CC3)nc2)c1 (single isomer, unassigned) [Example 480]
< 5 nM	CC[C@@H](CC(=O)O)c1ccc(N(CC)C2CCOCC2)c(Nc2ccc(Cl)c(OC)c2)c1 (single isomer, unassigned) [Example 481]
< 5 nM	CCOc1ccc(Nc2cc([C@@H](CC)CC(=O)O)ccc2N(CC)C2CCOCC2)nc1 (single isomer, unassigned) [Example 482]
< 5 nM	CC[C@@H](CC(=O)O)c1ccc(N(CC)C2CCOCC2)c(Nc2ccc3nc(C)sc3c2)c1 (single isomer, unassigned) [Example 484]

IC50	Structure (SMILES)
< 50 nM	CC[C@@H](CC(=O)O)c1ccc(N(CC)C2CCOCC2)c(Nc2ccc(S(=O)(=O)CC)cc2)c1 (single isomer, unassigned) [Example 485]
< 5 nM	CCC(CC(=O)O)c1ccc(N(CC)C2CCOCC2)c(NC(=O)Nc2ccc(C)cc2)c1 (single isomer, unassigned) [Example 487 Enantiomer 1, 3-(4-(Ethyl(tetrahydro-2H-pyran-4-yl)amino)-3-(3-(p-tolyl)ureido)phenyl)pentanoic acid]
< 5 nM	CC[C@@H](CC(=O)O)c1ccc(N(CC)C2CCOCC2)c(NC(=O)Nc2ccc(Cl)cc2F)c1 (single isomer, unassigned) [Example 489]
< 50 nM	CC[C@@H](CC(=O)O)c1ccc(N(CC)C2CCOCC2)c(NC(=O)Nc2ccc(F)cc2)c1 (single isomer, unassigned) [Example 490]
< 5 nM	CCOc1ncc(Nc2cc([C@H](CC)CC(=O)O)ccc2N(CC)C2CCOCC2)cn1 (single isomer, unassigned) [Example 498]
< 5 nM	CC[C@H](CC(=O)O)c1ccc(N(CC)C2CCOCC2)c(Nc2ccc(Cl)cc2)c1 (single isomer, unassigned) [Example 499]
< 5 nM	CC[C@H](CC(=O)O)c1ccc(N(CC)C2CCOCC2)c(Nc2ccc(C#N)cc2)c1 (single isomer, unassigned) [Example 501]
< 5 nM	CC[C@H](CC(=O)O)c1ccc(N(CC)C2CCOCC2)c(Nc2ccc(OCC(F)(F)F)cc2)c1 (single isomer, unassigned) [Example 515]
< 5 nM	CC[C@H](CC(=O)O)c1ccc(N(CC)C2CCOCC2)c(Nc2ccc(OCC3CC3)cc2)c1 (single isomer, unassigned) [Example 516]
< 5 nM	CCc1ccc(Nc2cc([C@H](CC)CC(=O)O)ccc2N(CC)C2CCOCC2)cc1 (single isomer, unassigned) [Example 517]
< 5 nM	CC[C@H](CC(=O)O)c1ccc(N(CC)C2CCOCC2)c(Nc2ccc(OC)nc2)c1 (single isomer, unassigned) [Example 518]
< 5 nM	CC[C@H](CC(=O)O)c1ccc(N(CC)C2CCOCC2)c(Nc2cnc(OC)nc2)c1 (single isomer, unassigned) [Example 519]
< 5 nM	CC[C@H](CC(=O)O)c1ccc(N(CC)C2CCOCC2)c(Nc2cnc(OCC3CC3)nc2)c1 (single isomer, unassigned) [Example 520]
< 5 nM	CCOc1ccc(Nc2cc([C@H](CC)CC(=O)O)ccc2N(CC)C2CCOCC2)nc1 (single isomer, unassigned) [Example 522]
< 5 nM	CC[C@H](CC(=O)O)c1ccc(N(CC)C2CCOCC2)c(NC(=O)Nc2ccc(Cl)cc2F)c1 (single isomer, unassigned) [Example 526]
